Series [1] can be described thus: Dissolution of spray-dried amorphous rebaudioside A in water. The class given is physicochemical. To be noted: room temperature, in 5 minutes. The protocol:
A solution of rebaudioside A (>97% pure by HPLC) was prepared in double distilled water (12.5 gm in 50 mL, 25% concentration) by stirring the mixture at 40° C. for 5 minutes. An amorphous rebaudioside form of A was formed by immediately using the clear solution for spray drying with the Lab-Plant spray drier SD-04 instrument (Lab-Plant Ltd., West Yorkshire, U.K.). The solution was fed through the feed pump into the nozzle atomizer which atomized it into a spray of droplets with the help of a constant flow of nitrogen/air. […] This dry powder (11-12 g, H2O 6.74%) was discharged continuously from the drying chamber and was collected in a bottle. The material was dissolved rapidly in water at room temperature up to a concentration of 35.0% (w/v) in 5 minutes.

Series [2] is described as follows: Rate of dissolution of rebaudioside A polymorphic and amorphous forms in water. It is filed as physicochemical.

Bounds are passed on as bounds.

As to `C=C1C[C@@]23CC[C@H]4[C@@](C)(CCC[C@@]4(C)C(=O)O[C@@H]4O[C@H](CO)[C@@H](O)[C@H](O)[C@H]4O)[C@@H]2CC[C@]1(O[C@@H]1O[C@H](CO)[C@@H](O)[C@H](O[C@@H]2O[C@H](CO)[C@@H](O)[C@H](O)[C@H]2O)[C@H]1O[C@@H]1O[C@H](CO)[C@@H](O)[C@H](O)[C@H]1O)C3` [Example F, rebaudioside A], the “Concentration dissolved rapidly in water” value in series [1] is ≤ 35.0 % (w/v). For the molecule `C=C1C[C@@]23CC[C@H]4[C@@](C)(CCC[C@@]4(C)C(=O)O[C@@H]4O[C@H](CO)[C@@H](O)[C@H](O)[C@H]4O)[C@@H]2CC[C@]1(O[C@@H]1O[C@H](CO)[C@@H](O)[C@H](O[C@@H]2O[C@H](CO)[C@@H](O)[C@H](O)[C@H]2O)[C@H]1O[C@@H]1O[C@H](CO)[C@@H](O)[C@H](O)[C@H]1O)C3` [Form 1, rebaudioside A], the “Rate of dissolution in H2O at 25° C. (grade in words)” value (from here on “Rate … (grade in words)”) in series [2] is “Very low”. Also, the “Rate of dissolution in H2O at 25° C., amount dissolved in 60 minutes” value in series [2] (in 60 minutes) is listed as “(<0.2% in”.

For the molecule `C=C1C[C@@]23CC[C@H]4[C@@](C)(CCC[C@@]4(C)C(=O)O[C@@H]4O[C@H](CO)[C@@H](O)[C@H](O)[C@H]4O)[C@@H]2CC[C@]1(O[C@@H]1O[C@H](CO)[C@@H](O)[C@H](O[C@@H]2O[C@H](CO)[C@@H](O)[C@H](O)[C@H]2O)[C@H]1O[C@@H]1O[C@H](CO)[C@@H](O)[C@H](O)[C@H]1O)C3` [Form 2, rebaudioside A], in series [2], the “Rate … (grade in words)” value was “Intermediate” and the “Rate of dissolution in H2O at 25° C., amount dissolved in 5 minutes” value was “(<30% in”.

Take `C=C1C[C@@]23CC[C@H]4[C@@](C)(CCC[C@@]4(C)C(=O)O[C@@H]4O[C@H](CO)[C@@H](O)[C@H](O)[C@H]4O)[C@@H]2CC[C@]1(O[C@@H]1O[C@H](CO)[C@@H](O)[C@H](O[C@@H]2O[C@H](CO)[C@@H](O)[C@H](O)[C@H]2O)[C@H]1O[C@@H]1O[C@H](CO)[C@@H](O)[C@H](O)[C@H]1O)C3` [Form 3, rebaudioside A]: in series [2], the “Rate … (grade in words)” value is “High” and the “Rate of dissolution in H2O at 25° C., amount dissolved in 5 minutes” value is “(>30% in”. Taken in the same sequence, the figures for `C=C1C[C@@]23CC[C@H]4[C@@](C)(CCC[C@@]4(C)C(=O)O[C@@H]4O[C@H](CO)[C@@H](O)[C@H](O)[C@H]4O)[C@@H]2CC[C@]1(O[C@@H]1O[C@H](CO)[C@@H](O)[C@H](O[C@@H]2O[C@H](CO)[C@@H](O)[C@H](O)[C@H]2O)[C@H]1O[C@@H]1O[C@H](CO)[C@@H](O)[C@H](O)[C@H]1O)C3` [Form 4, rebaudioside A] were “High” and “(>35% in”.

The values above are taken from patent US20170064988A1, “Delivery Systems for Natural High-Potency Sweetener Compositions, Methods for Their Formulation, and Uses” (The Coca-Cola Company, priority 2007, published 2017).
